Our source for the LD50 values is ChEMBL document CHEMBL1126661, “Oxidation chemistry of the endogenous central nervous system alkaloid salsolinol-1-carboxylic acid” (J Med Chem, 1993).

The test system of this data set is Mus musculus. As to the kind of experiment: Compound was evaluated for its lethal dose (LD50) by dissolving in 5 microL of isotonic saline and injected intracranially in mice which resulted in the death of 50% of the treated animals within 1 hour. In kind it is ADME, organism-based. As to conditions: in vivo, other.

In turn, `CC1=NCCc2cc(O)c(O)cc21` showed an LD50 of 31.1 µg.

With `CC1=NCCc2c1cc(O)c(O)c2O`, the LD50 is 38.9 µg.
